The test system of one series is Haemonchus contortus. The series can be described thus: Percent of Haemonchus destroyed or expelled in infected sheep (egg count after treatment). It is filed as in vivo, Haemonchus contortus (in sheep). As to conditions: for inhibition in vivo at 15 mg/kg / inhibition in vivo at 2 mg/kg / inhibition in vivo at 5 mg/kg: Haemonchus contortus. The method, then:
Two groups of sheep were used in the tests. One group was used as a non-medicated control, while the other group was treated with the compound under investigation. Helminth-free young lambs were infected with about 10,000 filariform larvae of Haemonchus contortus. In three weeks when the infection became apparent, egg counts were made to determine the density of the worm burden.
The egg count was carried out using the following modified Stoll method. Three grams of sheep feces were taken rectally from each animal and placed in a Stoll flask. To each flask, tap water was added to the top line. The fecal pellets were too hard to break down, the flasks were closed with rubber stoppers and kept in the refrigerator for several hours. The flasks were thoroughly shaken and a 1 ml. sample was drawn from the middle using a wide mouth pipette. This 1 ml. sample was transferred to an 8 ml. plastic tube, to which enough saturated sodium chloride solution was added to reach the rim. The tubes were then centrifuged for 10 minutes at 1500 r.p.m. Then sodium chloride solution was added with a medicine dropper forming a concave miniscus. A cover glass was carefully added and the tubes were kept in a refrigerator for ten to twenty minutes. During that period, the nematode ova flowed upward and adhered to the bottom of the cover glass slip. At the end of the 20-minute period, the cover slip was carefully detached from the miniscus and transferred to a microscopic slide. The ova were then counted under a microscope equipped with 10X ocular and 10X objective lens. Each ovum under the microscope represented 20 ova in the sample.
Animals with sufficiently high egg counts were taken out of the pool and housed in experimental pens. Since the salicylanilides of the present invention are water insoluble, the compounds were first ground using a mortar and pestle and then were placed in a carboxymethyl cellulose solution. The particles were further micronized ultrasonically. The compound was then administered to two or three animals by Oesophageal gavage. Control, untreated animals, received only the carboxymethyl cellulose solution in a similar manner. On the sixth and seventh day after treatment, fecal pellets were taken from the rectum of the control as well as the treated animals and egg counts were made.
(§1) The results of tests on sheep in a manner described, supra, using compounds of the present invention are given in Table 1, Examples 5 through 13. The numbers in the column headed "Haemonchus (15 mg/kg)" refer to the percent of parasites destroyed or expelled when the indicated compound was introduced into the rumen of sheep at a dosage of 15 milligrams per kilogram of body weight. The values under "Tolerance (mg/kg)" refer to the highest test dosage in the milligrams of anthelmintic per kilogram of body weight at which the sheep developed no toxic symptoms. "Tol." is an abbreviation for "tolerated". The symbols R1 and R2 refer to those of Formula I in these and other following examples.
(§2) The data of the tables were generated using procedures previously described. The compounds tested are disubstituted and, except for Example 50 which is dibromo, are dichloro. Where the position for the substituents is other than 2' and 4', it is indicated. Under the indicated microorganisms, the values given in this and the following tables, should be read as: percentage of microorganism killed/dose in milligrams per kilogram of body weight. Under "Tolerance", the term "Tol." means "tolerated", "Tox." means "toxic", and "Sym." means "symptoms of toxic reaction", all at the dosage value which follows. It will be appreciated that there is no sharp toxicity end point in determining toxicity to living sheep.

A further series concerns Fasciola hepatica. Nature of the series: Test for activity against liver flukes, Fasciola hepatica, in infected sheep. It is filed as in vivo. How it is done: (§3) Test for activity against liver flukes were conducted as follows:
(§4) Eggs of Fasciola hepatica were collected from the bile of donor sheep. The eggs were embryonated and snails were infected (the genus Lymnaea serves as intermediate host) to produce Metacercariae which are the infective forms for sheep. Each sheep was infected with 250 metacercariae intraruminally. When the infection became patent in ca. 80 days, egg counts were carried out to determine the degree of worm burden. The liver was processed to recover F. hepatica in the untreated and treated sheep.
as §2

For another series, the system named is Escherichia coli. The series can be described thus: Agar plate minimum inhibitory concentration. It is filed as cell-based. The conditions noted are these: nutrient agar, 48 hours at 37°C., complete inhibition. How it is done:
(§5) The following procedure for antibacterial evaluation was used. Test compounds were dissolved in a suitable solvent (typically dimethyl sulfoxide or acetone) and incorporated in a nutrient agar at various concentrations. The plates were then streaked with cultures of the appropriate bacteria. The inoculum contained about 8 × 10^8 organisms per milliliter. After incubation for 48 hours at 37°C., the plates were examined for evidence of growth of the microorganisms. The minimum concentration necessary for complete inhibition of growth was noted.

The test system of the next series is Haemophilus gallinarum. The series can be described thus: Agar plate minimum inhibitory concentration. The conditions noted are these: Avibacterium paragallinarum, nutrient agar, 48 hours at 37°C., complete inhibition. It is filed as cell-based. How it is done: as §5
For another series, the system named is Salmonella choleresuis. Nature of the series: Agar plate minimum inhibitory concentration. It is filed as cell-based. The conditions noted are these: 48 h, read-out: Minimum Inhibitory Concentration. The method, then:
as §5

Another series concerns Salmonella gallinarum. The series can be described thus: Agar plate minimum inhibitory concentration. It is filed as cell-based. The conditions noted are these: Salmonella enterica, nutrient agar, 48 hours at 37°C., complete inhibition. How it is done:
as §5

A further series deals with Staphylococcus aureaus. The series can be described thus: Agar plate minimum inhibitory concentration. It is filed as cell-based. The conditions noted are these: 48 h, read-out: Minimum Inhibitory Concentration. The method, then:
as §5

The next series relates to Streptococcus foecalis. Nature of the series: Agar plate minimum inhibitory concentration. It is filed as cell-based. As to conditions: 48 h, read-out: Minimum Inhibitory Concentration. The method, then: as §5
In another series the test system is Alternaria solani. The series can be described thus: Reducing infestation on tomatoes, early blight. It is filed as in vivo, Alternaria solani (on tomatoes).
A further series relates to Phytophthora infestans. It is filed as in vivo, Phytophthora infestans (on tomatoes).
Series [1] is described as follows: Tolerance / toxicity in sheep. It is filed as in vivo. Further details: key to Tolerance at 100 mg/kg / Tolerance at 50 mg/kg: "toxic" refers to death of sheep resulting from the use of the indicated compound at the indicated dosage; key to Tolerance: Tol.: tolerated; Tox.: toxic; Sym.: symptoms of toxic reaction. The conditions noted are these: in vivo, Table 1, read-out: Tolerance, highest test dosage at which the sheep developed no toxic symptoms. The method, then: as §1
(§6) The importance of the 2',4' substitution on the anilide moiety of Formula I is illustrated by the case of the dichloro substitution as summarized in Table III. […] This has been mentioned briefly hereinabove. As used herein, "toxic" refers to death of sheep resulting from the use of the indicated compound at the indicated dosage.
as §2

For series [2], the system named is Trichophyton mentagrophytes. Nature of the series: Inhibition of fungus on Sabouraud agar. It is filed as cell-based. The conditions noted are these: 120 hours at 25°C., read-out: inhibitory concentration. How it is done:
as §5
For testing against the fungus Trichophyton the same procedure was used, except that the test medium was Sabouraud agar, and the plates were cultured for 120 hours at 25°C. before evaluation for evidence of growth. The inoculum added to the culture media contained about 5 × 10^6 spores in a water suspension containing 0.1% peptone.

The subject of series [3] is liver flukes of the genus Fasciola. Nature of the series: Utility against liver flukes of the genus Fasciola in sheep (oral). It is filed as in vivo. How it is done: as §3, §4
The compounds of this invention also have utility against liver flukes.

For the next series, the system named is sheep. The series can be described thus: Tolerance / toxicity in sheep. It is filed as in vivo. More on the design: key to Tolerance at 100 mg/kg / Tolerance at 50 mg/kg: "toxic" refers to death of sheep resulting from the use of the indicated compound at the indicated dosage; key to Tolerance: Tol.: tolerated; Tox.: toxic; Sym.: symptoms of toxic reaction. The method, then:
as §1, §6, §2

For series [4], the system named is Haemonchus and Fasciola hepatica. Nature of the series: Dual activity against Haemonchus and Fasciola in sheep and therapeutic ratio. It is filed as in vivo. As to conditions: sheep, 5 mg./kg.
Where [5] appears, read: sheep, 15 mg/kg, Table V, read-out: Effectiveness at 15 mg/kg against Haemonchus.
Setting [6] is: sheep, 15 mg/kg, Tables VIII-XI, read-out: Haemonchus, percentage of microorganism killed.
[7] abbreviates: sheep, into rumen, 15 mg/kg, Table 1.
The mark [8] stands for this setting: Fasciola hepatica, sheep, 5 mg/kg, Tables VIII-XI, read-out: Fasciola hepatica, percentage of microorganism killed.
The mark [9] stands for this setting: Fasciola hepatica, sheep, Tables VIII-XI, read-out: Fasciola hepatica, percentage of microorganism killed.
Setting [10] is: sheep, Tables VIII-XI, read-out: Haemonchus, percentage of microorganism killed.
Where [11] appears, read: sheep, 5 mg/kg, Tables VIII-XI, read-out: Haemonchus, percentage of microorganism killed.

In brackets after ≈: the same amount, converted by molar mass. Where two headings read alike, the source gives them in different places.

With `Cc1c([N+](=O)[O-])cc(C(C)(C)C)c(O)c1C(=O)Nc1ccc(Br)cc1` [Example 8, 4'-bromo-3-tert. butyl-6-methyl-5-nitrosalicylanilide], the results for the inhibition in vivo at 15 mg/kg in the series on Haemonchus contortus (setting [5]), in the series with Haemonchus contortus (setting [6]) and with Fasciola hepatica (setting [9]) were 61%, 61% and 100%, respectively. Also, in the series on Haemonchus contortus (setting [7]), the “Haemonchus (15 mg/kg), percent of parasites destroyed or expelled” value (shortened to “Haemonchus (15 mg/kg), percent”) is 61%. Moreover, the inhibition in vivo at 5 mg/kg in the series with Fasciola hepatica (setting [8]) worked out at 0%. Also, the MIC in the series on Escherichia coli amounted to 64 µg/mL (≈ 157 µM); against Haemophilus gallinarum it was 8 µg/mL (≈ 19.6 µM); in the series on Salmonella choleresuis, 64 µg/mL (≈ 157 µM); against Salmonella gallinarum, 64 µg/mL (≈ 157 µM); in the series on Staphylococcus aureaus, 1 µg/mL (≈ 2.46 µM); in the series on Streptococcus foecalis, 64 µg/mL (≈ 157 µM). Also, the “reducing infestation on tomatoes, early blight” value with Alternaria solani is reported as “effective in reducing infestation”. The “reducing infestation on tomatoes, late blight” value with Phytophthora infestans was “effective in reducing infestation”.
As to `Cc1c([N+](=O)[O-])cc(C(C)(C)C)c(O)c1C(=O)Nc1ccc(Cl)cc1` [Example 7, 3-tert. butyl-4'-chloro-6-methyl-5-nitrosalicylanilide], the inhibition in vivo at 2 mg/kg in the series on Haemonchus contortus (setting [10]) and in the series with Fasciola hepatica (setting [9]) was 0% each time. Also, the inhibition in vivo at 5 mg/kg in the series with Haemonchus contortus (setting [11]) was found to be 65%; in the series on Fasciola hepatica (setting [8]), 50%. The inhibition in vivo at 15 mg/kg was determined as 81% in the series on Haemonchus contortus (setting [5]), 81% in the series with Haemonchus contortus (setting [6]) and 100% in the series with Fasciola hepatica (setting [9]). Moreover, the “Haemonchus (2 mg/kg), percent of parasites destroyed or expelled” value with Haemonchus contortus (sheep, into rumen, Table 1) was found to be 0%. The “Haemonchus (5 mg/kg), percent of parasites destroyed or expelled” value with Haemonchus contortus (sheep, into rumen, 5 mg/kg, Table 1) was 65%. Moreover, the “Haemonchus (15 mg/kg), percent” value in the series on Haemonchus contortus (setting [7]) was 81%. The NOAEL in series [1] lay within 15 to 50 mg/kg. Further, the MIC in [2] turned out to be 1 µg/mL (≈ 2.76 µM). Besides, the “effect against liver flukes” value in series [3] (15 mg/kg) was “efficacious”.
In the case of `Cc1c([N+](=O)[O-])cc(C(C)(C)C)c(O)c1C(=O)Nc1ccc(Cl)cc1Cl` [Example 5, 3-tert. butyl-2', 4'-dichloro-6-methyl-5-nitrosalicylanilide], the inhibition in vivo at 15 mg/kg in the series with Haemonchus contortus (iv, sheep, 15 mg/kg, Tables III and IV, read-out: Effectiveness (%) at 15 mg/kg) is 100%; in the series with Haemonchus contortus (read-out: Haemonchus, percentage of microorganism killed, sheep, 15 mg/kg, Tables VIII-XI), 100%. In addition, the inhibition in vivo at 2 mg/kg came to 14% with Haemonchus contortus (setting [10]) and 99% in the series on Fasciola hepatica (setting [9]). Moreover, the inhibition in vivo at 5 mg/kg worked out at 100% in the series with Haemonchus contortus (setting [11]) and 100% in the series with Fasciola hepatica (Fasciola hepatica, read-out: Fasciola hepatica, percentage of microorganism killed). Moreover, the “activity at 5 mg./kg.” value with Haemonchus contortus (sheep, 5 mg/kg) worked out at 100%. In addition, in the series with Haemonchus contortus (sheep, 5 mg/kg, Tables III and IV), the “Effectiveness (%) at 5 mg/kg” value is reported as 100%. For the same compound, in the series with Haemonchus contortus (sheep, 15 mg/kg, Table VI), the “Effectiveness at 15 mg/kg against Haemonchus” value turned out to be 100%. Besides, in the series with Haemonchus contortus (sheep, dose not given), the “effective in killing or expelling Haemonchus” value is 100%. The “Haemonchus (2 mg/kg), percent of parasites destroyed or expelled” value in the series on Haemonchus contortus (sheep, into rumen, Table 1) came to 14%. In addition, the “Haemonchus (15 mg/kg), percent” value in the series with Haemonchus contortus (setting [7]) is on record as 100%. For the same compound, the inhibition in vivo at 1 mg/kg in the series on Fasciola hepatica (Fasciola hepatica, sheep, 1 mg/kg, Tables VIII and X, read-out: Fasciola hepatica, percentage of microorganism killed) is 44%. For the same compound, the “dose ratio: times less than the dose at which the 2',5' dichloro compound had no activity (Fasciola)” value in the series with Fasciola hepatica (sheep) is 2.5 times. Further, the “effective against Fasciola” value with Fasciola hepatica (sheep, dose 2.5 times less than that at which the 2',5' dichloro compound had no activity) was 99%. Moreover, the NOAEL in series [1] was 50 to 100 mg/kg. In addition, the Tolerance result is “Tol” in the series with sheep (50 mg./kg., Tables VIII-X) and “Sym” in the series on sheep (100 mg./kg., Tables VIII, IX). For the same compound, the “Tolerance at 50 mg/kg” value in the series on sheep (50 mg/kg, Tables III and IV) is on record as “nontoxic”. In addition, the “Tolerance at 100 mg/kg” value in the series on sheep (100 mg/kg, Tables III and IV) is given as “toxic”. Also, the “effect against (mature) liver flukes” value in series [3] (oral, 5 mg/kg, within three days) was “completely destroyed all flukes”. Also, the “dual activity against both Haemonchus and Fasciola” value in [4] is 100%.
